Test system: human carcino embryonic antigen (CEA)
Assay: CEA-specific IgG1/IgG2a serum antibody ELISA after particle-mediated DNA immunization
Type: in vivo, mouse
Conditions: Balb/c mice, sera four weeks after treatment
Description: The adjuvant and the nucleic acid molecule containing the sequence encoding the antigen of interest were co-administered via particle-mediated delivery using a gene gun. The particular antigen used for this example was the human carcino embryonic antigen (“CEA”), a human tumor antigen widely used in experiments investigating cancer therapeutic treatments. […] Without an adjuvant, Th2 type CEA-specific antibodies (IgG1) are detected at levels more than twenty-fold higher than the levels of Th1 type CEA-specific antibodies (IgG2a) in Balb/c mice.
For this protocol, a plasmid construct containing a coding region for the CEA antigen under the control of the cytomegalovirus immediate early promoter (CMV) with the CMV intron A between the promoter and the coding region was used. To form the composition, 64 μg of the plasmid, which was designated WRG7083, in 120 μL of water was added to 32 milligrams of 0.9 micron gold beads in an Eppendorf tube, i.e., 2 μg DNA/mg gold. Next, 13.5 μL of ammonium acetate solution and 135 μL of isopropanol were added, and the tube was vortexed briefly. The mixture was incubated for 15 minutes at −20° C. to precipitate the DNA onto the gold. The DNA coated beads were pelleted by a ten second spin and the supernatants were removed. The gold/DNA pellets were washed four times by vortexing in 1 mL ethanol, microfuging ten seconds, and removing supernatants. […]

Sequence of human carcino embryonic antigen (CEA) (P06731 35-676): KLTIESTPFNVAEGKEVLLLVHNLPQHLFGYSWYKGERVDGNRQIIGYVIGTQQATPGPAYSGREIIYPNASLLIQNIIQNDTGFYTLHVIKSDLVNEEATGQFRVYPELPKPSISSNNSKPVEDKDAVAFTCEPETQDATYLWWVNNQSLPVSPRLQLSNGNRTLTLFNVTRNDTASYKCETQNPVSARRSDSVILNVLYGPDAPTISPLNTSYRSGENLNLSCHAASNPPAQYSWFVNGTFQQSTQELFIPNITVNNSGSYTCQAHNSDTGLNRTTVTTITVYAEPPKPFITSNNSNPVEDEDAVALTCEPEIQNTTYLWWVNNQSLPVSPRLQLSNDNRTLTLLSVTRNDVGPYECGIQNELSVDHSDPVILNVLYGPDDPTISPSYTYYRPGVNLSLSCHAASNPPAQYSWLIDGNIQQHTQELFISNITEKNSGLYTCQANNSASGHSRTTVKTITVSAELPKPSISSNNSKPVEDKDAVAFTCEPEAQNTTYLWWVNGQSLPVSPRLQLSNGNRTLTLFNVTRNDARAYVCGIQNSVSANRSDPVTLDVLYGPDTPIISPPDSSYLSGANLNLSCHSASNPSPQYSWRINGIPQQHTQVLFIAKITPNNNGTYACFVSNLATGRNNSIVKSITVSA

Question: How did the “ratio of IgG1 to IgG2a CEA-specific antibodies” value (0.2 mg/mL MPL on WRG7083 DNA-coated gold particles, gene gun delivery) turn out when monophosphoryl lipid A [MPL] was run?
Answer: 4.5

Question: What about the “ratio of IgG1 to IgG2a CEA-specific antibodies” value (MPL stock swabbed on skin prior to gene gun delivery of WRG7083 DNA) of the same substance?
Answer: about 4.0

From US7699801B2, “Advanced genetic vaccines” (priority 1995, dated 2010)
